Assays:
Format in all cases: in vivo
[1] = system: Yellow Fever Mosquito (Aedes aegypti, AEDSAE); assay: Bioassay on Yellow Fever Mosquito (YFM), 96-well plate larval assay; conditions: Yellow Fever Mosquito, 96-well plate larval assay
How it was run: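 Each well was scored for mortality after 3 days at room temperature under a non-evaporative lid. Test molecules came from DMSO masters (4000 ppm stock) diluted with water/acetone 90:10 and dispensed into six replicate plates, which were then infested with roughly 1-day-old larvae in liver-powder water.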

[2] = system: Cabbage Looper (Trichoplusia ni, TRIPNI); assay: Bioassay on Cabbage Looper (CL), 128-well diet tray assay; conditions: Trichoplusia ni; Cabbage Looper, 128-well diet tray assay; read-out: CL rating
How it was run: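 Using eight wells per molecule, artificial diet was dosed at 50 μg/cm^2 with compound in 90:10 acetone-water and dried before one to five second-instar larvae were added per well. Covered vented trays were kept at 25° C. with 14:10 light-dark for five to seven days, then per-well percent mortality was recorded and averaged.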

[3] = system: Beet Armyworm (Spodoptera exigua, LAPHEG); assay: Bioassay on Beet Armyworm (BAW), 128-well diet tray assay; conditions: Beet Armyworm, 128-well diet tray assay, read-out: BAW rating
How it was run: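 Second-instar larvae, one to five per well, placed on artificial diet surface-treated with 50 μg/cm^2 compound applied in 90:10 acetone-water and dried. Held 5–7 days at 25° C., 14:10 light-dark. Percent mortality recorded per well and averaged over eight wells.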

Structure (SMILES)	YFM rating [1]	pest or weed control at 50 µg/cm2 [2] [%]	pest or weed control at 50 µg/cm2 [3] [%]
CN(C(=O)c1cc(NC(=O)[C@H]2[C@H](c3cc(Cl)cc(C(F)F)c3)C2(Cl)Cl)ccc1Cl)c1ccc(F)cc1 (relative stereo) [F592, 2-Chloro-5-(trans-2,2-dichloro-3-(3-chloro-5-(difluoromethyl)phenyl)cyclopropane-1-carboxamido)-N-(4-fluorophenyl)-N-methylbenzamide]	A (80-100)	50 to 100	50 to 100
CN(C(=O)c1cc(NC(=O)[C@H]2[C@H](c3ccc(Cl)c(C(F)F)c3)C2(Cl)Cl)ccc1Cl)c1ccc(F)cc1 (relative stereo) [F593, 2-Chloro-5-(trans-2,2-dichloro-3-(4-chloro-3-(difluoromethyl)phenyl)cyclopropane-1-carboxamido)-N-(4-fluorophenyl)-N-methylbenzamide]	A (80-100)	50 to 100	50 to 100
CN(C(=O)c1cc(NC(=O)[C@H]2[C@H](c3cc(F)cc(C(F)F)c3)C2(Cl)Cl)ccc1Cl)c1ccc(F)cc1 (relative stereo) [F594, 2-Chloro-5-(trans-2,2-dichloro-3-(3-(difluoromethyl)-5-fluorophenyl)cyclopropane-1-carboxamido)-N-(4-fluorophenyl)-N-methylbenzamide]	A (80-100)	50 to 100	50 to 100
CN(C(=O)c1cc(NC(=O)[C@H]2[C@H](c3ccc(F)c(C(F)F)c3)C2(Cl)Cl)ccc1Cl)c1ccc(F)cc1 (relative stereo) [F595, 2-Chloro-5-(trans-2,2-dichloro-3-(3-(difluoromethyl)-4-fluorophenyl)cyclopropane-1-carboxamido)-N-(4-fluorophenyl)-N-methylbenzamide]	A (80-100)	50 to 100	50 to 100
CN(C(=O)c1cc(NC(=O)[C@H]2[C@H](c3ccc(C(F)F)c(Cl)c3)C2(Cl)Cl)ccc1Cl)c1ccc(F)cc1 (relative stereo) [F596, 2-Chloro-5-(trans-2,2-dichloro-3-(3-chloro-4-(difluoromethyl)phenyl)cyclopropane-1-carboxamido)-N-(4-fluorophenyl)-N-methylbenzamide]	A (80-100)	50 to 100	50 to 100
CN(C(=O)c1cc(NC(=O)[C@H]2[C@H](c3ccc(C(F)F)c(F)c3)C2(Cl)Cl)ccc1Cl)c1ccc(F)cc1 (relative stereo) [F597, 2-Chloro-5-(trans-2,2-dichloro-3-(4-(difluoromethyl)-3-fluorophenyl)cyclopropane-1-carboxamido)-N-(4-fluorophenyl)-N-methylbenzamide]	A (80-100)	50 to 100	50 to 100
CN(C(=O)c1cc(NC(=O)[C@H]2[C@H](c3cccc(C(F)F)c3)C2(Cl)Cl)ccc1Cl)c1ccc(F)cc1 (relative stereo) [F598, 2-Chloro-5-(trans-2,2-dichloro-3-(3-(difluoromethyl)phenyl)cyclopropane-1-carboxamido)-N-(4-fluorophenyl)-N-methylbenzamide]	A (80-100)	50 to 100	50 to 100
CN(C(=O)c1cc(NC(=O)[C@H]2[C@H](c3ccc(C(F)F)cc3)C2(Cl)Cl)ccc1Cl)c1ccc(F)cc1 (relative stereo) [F599, 2-Chloro-5-(trans-2,2-dichloro-3-(4-(difluoromethyl)phenyl)cyclopropane-1-carboxamido)-N-(4-fluorophenyl)-N-methylbenzamide]	A (80-100)	50 to 100	50 to 100
O=C(Nc1ccc(F)cc1F)c1cc(NC(=O)[C@H]2[C@H](c3ccc(F)c(Cl)c3)C2(Cl)Cl)ccc1Cl (relative stereo) [PF6, trans-2-Chloro-5-(2,2-dichloro-3-(3-chloro-4-fluorophenyl)cyclopropane-1-carboxamido)-N-(2,4-difluorophenyl)benzamide]	A (80-100)	50 to 100	50 to 100
CCc1ccc(NC(=O)[C@H]2[C@H](c3cc(Cl)cc(Cl)c3)C2(Cl)Cl)cc1C(=O)Nc1ccc(F)cc1 (relative stereo) [PF8, trans-5-(2,2-Dichloro-3-(3,5-dichlorophenyl)cyclopropanecarboxamido)-2-ethyl-N-(4-fluorophenyl)benzamide]	A (80-100)	50 to 100	50 to 100
C=Cc1ccc(NC(=O)[C@H]2[C@H](c3cc(Cl)cc(Cl)c3)C2(Cl)Cl)cc1C(=O)Nc1ccc(F)cc1 (relative stereo) [PF9, trans-5-(2,2-Dichloro-3-(3,5-dichlorophenyl)cyclopropanecarboxamido)-N-(4-fluorophenyl)-2-vinylbenzamide]	A (80-100)	50 to 100	50 to 100
O=C(Nc1ccc(SCC(F)(F)F)cc1)c1cc(NC(=O)[C@H]2[C@H](c3cc(Cl)cc(Cl)c3)C2(Cl)Cl)ccc1Cl (relative stereo) [PF10, trans-2-Chloro-5-(2,2-dichloro-3-(3,5-dichlorophenyl)cyclopropane-1-carboxamido)-N-(4-((2,2,2-trifluoroethyl)thio)phenyl)benzamide]	B (More than 0-Less than 80)	50 to 100	50 to 100
O=C(Nc1ccc(SC(F)(F)F)cc1)c1cc(NC(=O)[C@H]2[C@H](c3cc(Cl)cc(Cl)c3)C2(Cl)Cl)ccc1Cl (relative stereo) [PF11, trans-2-Chloro-5-(2,2-dichloro-3-(3,5-dichlorophenyl)cyclopropane-1-carboxamido)-N-(4-((trifluoromethyl)thio)phenyl)benzamide]	B (More than 0-Less than 80)	50 to 100	50 to 100
CC(C)(C)OC(=O)Nc1ccc(NC(=O)c2cc(NC(=O)[C@H]3[C@H](c4cc(Cl)cc(Cl)c4)C3(Cl)Cl)ccc2Cl)cc1 (relative stereo) [PF13, trans-tert-Butyl-(4-(2-chloro-5-(2,2-dichloro-3-(3,5-dichlorophenyl)cyclopropane-1-carboxamido)benzamido)phenyl)carbamate]	A (80-100)	50 to 100	50 to 100
C#Cc1ccc(NC(=O)c2cc(NC(=O)[C@H]3[C@H](c4cc(Cl)cc(Cl)c4)C3(Cl)Cl)ccc2Cl)cc1 (relative stereo) [PF15, trans-2-Chloro-5-(2,2-dichloro-3-(3,5-dichlorophenyl)cyclopropane-1-carboxamido)-N-(4-ethynylphenyl)benzamide]	B (More than 0-Less than 80)	50 to 100	50 to 100
C=Cc1ccc(NC(=O)c2cc(NC(=O)[C@H]3[C@H](c4cc(Cl)cc(Cl)c4)C3(Cl)Cl)ccc2Cl)cc1 (relative stereo) [PF16, trans-2-Chloro-5-(2,2-dichloro-3-(3,5-dichlorophenyl)cyclopropane-1-carboxamido)-N-(4-vinylphenyl)benzamide]	A (80-100)	50 to 100	50 to 100
